Measurements: patent US12692235B2, “Fused ring compound and application thereof” (WUHAN LL SCIENCE AND TECHNOLOGY DEVELOPMENT CO., LTD., priority 2019, dated 2026)

target: T1, hP2X4 (human purinergic P2X receptor subtype 4) (Homo sapiens, UniProt Q99571); conditions: P2X4 IC50 (nM), HEK293 cells stably expressing hP2X4; agonist BZ-ATP 2.5 μM; FLIPR calcium
T1 sequence (Q99571 1-404 isoform Q99571-2): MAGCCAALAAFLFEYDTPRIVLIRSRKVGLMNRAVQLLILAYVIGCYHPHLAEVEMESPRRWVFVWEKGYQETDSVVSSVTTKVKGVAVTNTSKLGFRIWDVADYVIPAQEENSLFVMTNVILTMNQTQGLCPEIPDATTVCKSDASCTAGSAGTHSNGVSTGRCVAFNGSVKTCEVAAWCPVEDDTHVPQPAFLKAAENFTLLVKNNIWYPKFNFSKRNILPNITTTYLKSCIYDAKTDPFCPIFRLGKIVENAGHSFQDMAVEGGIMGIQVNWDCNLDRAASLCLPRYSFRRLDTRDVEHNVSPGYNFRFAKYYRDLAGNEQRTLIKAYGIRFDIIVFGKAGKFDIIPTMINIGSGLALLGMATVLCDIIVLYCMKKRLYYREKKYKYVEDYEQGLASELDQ

IC50	Compound
10 to 50 nM	NS(=O)(=O)c1cc(NC(=O)Cc2ccccc2Cl)cc2c(Cl)nccc12 [Compound 2, N-(1-chloro-5-sulfamoylisoquinolin-7-yl)-2-(2-chlorophenyl)acetamide]
10 to 50 nM	NS(=O)(=O)c1cc(NC(=O)Cc2ccccc2Cl)cc2ncccc12 [Compound 4, 2-(2-chlorophenyl)-N-(5-sulfamoylquinolin-7-yl)acetamide]
50 to 200 nM	NS(=O)(=O)c1cc(NC(=O)Cc2ccccc2Cl)cc2cnc(Cl)cc12 [Compound 5, N-(3-chloro-5-sulfamoylisoquinolin-7-yl)-2-(2-chlorophenyl)acetamide]
10 to 50 nM	NS(=O)(=O)c1cc(NC(=O)Cc2ccccc2Cl)cc2cnccc12 [Compound 6]
50 to 200 nM	NS(=O)(=O)c1cc(NC(=O)Cc2ccccc2Cl)cc2cnc(F)cc12 [Compound 7, 2-(2-chlorophenyl)-N-(3-fluoro-5-sulfamoylisoquinolin-7-yl)acetamide]
10 to 50 nM	CCOc1nccc2c(S(N)(=O)=O)cc(NC(=O)Cc3ccccc3Cl)cc12 [Compound 8, 2-(2-chlorophenyl)-N-(1-ethoxy-5-sulfamoylisoquinolin-7-yl)acetamide]
10 to 50 nM	CC(C)Oc1nccc2c(S(N)(=O)=O)cc(NC(=O)Cc3ccccc3Cl)cc12 [Compound 9, 2-(2-chlorophenyl)-N-(1-isopropoxy-5-sulfamoylisoquinolin-7-yl)acetamide]
10 to 50 nM	NS(=O)(=O)c1cc(NC(=O)Cc2ccccc2Cl)cc2c(OC3CC3)nccc12 [Compound 10, 2-(2-chlorophenyl)-N-(1-cyclopropoxy-5-sulfamoylisoquinolin-7-yl)acetamide]
10 to 50 nM	NS(=O)(=O)c1cc(NC(=O)Cc2ccccc2Cl)cc2c(OC3CNC3)nccc12 [Compound 12, N-(1-(azetidin-3-oxy)-5-sulfamoylisoquinolin-7-yl)-2-(2-chlorophenyl)acetamide]
10 to 50 nM	NS(=O)(=O)c1cc(NC(=O)Cc2ccccc2Cl)cc2c(OC3CCCC3)nccc12 [Compound 13]
50 to 200 nM	CC(C)CCOc1nccc2c(S(N)(=O)=O)cc(NC(=O)Cc3ccccc3Cl)cc12 [Compound 15, 2-(2-chlorophenyl)-N-(1-(isopentyloxy)-5-sulfamoylisoquinolin-7-yl)acetamide]
10 to 50 nM	NS(=O)(=O)c1cc(NC(=O)Cc2ccccc2Cl)cc2c(OCC3CC3)nccc12 [Compound 16]
50 to 200 nM	NS(=O)(=O)c1cc(NC(=O)Cc2ccccc2Cl)cc2c(OCCC3CC3)nccc12 [Compound 17, 2-(2-chlorophenyl)-N-(1-(2-cyclopropylethoxy)-5-sulfamoylisoquinolin-7-yl)acetamide]
50 to 200 nM	NS(=O)(=O)c1cc(NC(=O)Cc2ccccc2Cl)cc2cncc(F)c12 [Compound 18, 2-(2-chlorophenyl)-N-(4-fluoro-5-sulfamoylisoquinolin-7-yl)acetamide]
< 10 nM	NS(=O)(=O)c1cc(NC(=O)Cc2ccccc2Cl)cc2cnc(C(F)(F)F)cc12 [Compound 19, 2-(2-chlorophenyl)-N-(−5-sulfamoyl-3-(trifluoromethyl)isoquinolin-7-yl)acetamide]
10 to 50 nM	N#Cc1cc2c(S(N)(=O)=O)cc(NC(=O)Cc3ccccc3Cl)cc2cn1 [Compound 20, 2-(2-chlorophenyl)-N-(3-cyano-5-sulfamoylisoquinolin-7-yl)acetamide]
< 10 nM	NS(=O)(=O)c1cc(NC(=O)Cc2ccccc2Cl)cc2cnc(C3CC3)cc12 [Compound 21, 2-(2-chlorophenyl)-N-(3-cyclopropyl-5-sulfamoylisoquinolin-7-yl)acetamide]

Compound	IC50
NS(=O)(=O)c1cc(NC(=O)Cc2ccccc2Cl)cc2c(OC3CCC3)nccc12 [Compound 11, 2-(2-chlorophenyl)-N-(1-cyclobutoxy-5-sulfamoylisoquinolin-7-yl)acetamide]	10 to 50 nM
CC(C)COc1nccc2c(S(N)(=O)=O)cc(NC(=O)Cc3ccccc3Cl)cc12 [Compound 14, 2-(2-chlorophenyl)-N-(1-isobutoxy-5-sulfamoylisoquinolin-7-yl)acetamide]	10 to 50 nM
